This assay addresses T1, HIV-1 RT enzyme (wild type) (Human immunodeficiency virus type 1 group M subtype B, UniProt P04585).
T1 construct: The reverse transcriptase (RT) enzyme assay has been adapted to a 96-well microtiter plate format
Description: Reverse transcriptase (RT) enzymatic assay (IC50), PicoGreen fluorescence, wild type. The settings on record: RT enzymatic assay, wild type; read-out: IC50 WT. The format is biochemical. The procedure: Reverse Transcriptase (RT) Assays Enzymatic Assay (IC50)
The enzymatic assay employed is described as follows: The reverse transcriptase (RT) enzyme assay has been adapted to a 96-well microtiter plate format and uses PicoGreen™ as a fluorescent intercalator. More explicitly, the HIV-1 RT enzyme was thawed and appropriately diluted into Tris/HCl 50 mM pH 7.8 containing NaCl 60 mM, MgCl2∘6H2O 2 mM, DTT 6 mM, GSH 2 mM and 0.02% w/v Chaps to give ≈10 nM enzyme. […] The plate was pre-incubated for 15 minutes at room temperature before proceeding to the next step. […] Then the enzymatic reaction was initiated by addition of 20 μL of substrate solution. […] After addition of the substrate cocktail, the plate was covered with a plastic seal and incubated for 50 minutes at 37° C. in a dry incubator. The reaction was then quenched by addition of 5 μL of EDTA 0.5 M. The plate was shaken for 30 seconds at medium speed and incubated for 5 minutes at room temperature. Then 160 μL of PicoGreen™ 1:400 dilution from commercial stock (diluted in Tris 20 mM pH 7.5 with EDTA 1 mM) was added and the plate was shaken for 30 seconds and incubated for 10 minutes at room temperature. […] Each row contained at its extremities a blank and a control well.
Table legend: A=>100; B=100-50; C=<50; NT=not tested

pIC50: −log10 of the molar value.

The term pIC50 denotes the negative decadic logarithm of the IC50, by convention in mol/L. Take `O=C1c2ccccc2C(=O)N1CCSc1nnnn1-c1cccc2ccccc12` [Entry 341]: the pIC50 was less than 7.00. For `O=C(CSc1nnnn1-c1cccc2ccccc12)Nc1ccncc1` [Entry 245], the pIC50 was less than 7.00. Consider `O=C(CS(=O)(=O)c1ccccc1-c1cccc2ccccc12)Nc1ccccc1Cl` [Entry 408], for which the pIC50 was less than 7.00. With `O=C(NCCSc1nnnn1-c1cccc2ccccc12)Nc1ccccc1[N+](=O)[O-]` [Entry 333], the pIC50 was less than 7.00. Consider `COc1cc(NC(=O)CSc2nnnn2-c2cccc3ccccc23)cc(OC)c1` [Entry 242], for which the pIC50 was less than 7.00. `NS(=O)(=O)c1ccccc1NC(=O)CSc1nnnn1-c1cccc2ccccc12` [Entry 220]: the pIC50 is less than 7.00. Turning to `OC(CSc1nnnn1-c1cccc2ccccc12)C(O)c1ccccc1Cl` (centres unmarked) [Entry 319], the pIC50 is less than 7.00. For `Cc1cccc(NC(=O)CSc2nnnn2-c2cccc3ccccc23)c1C` [Entry 228], the negative-log IC50 (pIC50) is less than 7.00. With `O=[N+]([O-])c1ccccc1NCCSc1nnnn1-c1cccc2ccccc12` [Entry 326] the figure was less than 7.00. For the compound `COc1ccc(-n2nnnc2SCC(=O)Nc2ccccc2[N+](=O)[O-])c(OC)c1` [Entry 131], the pIC50 is less than 7.00. Turning to `O=C(CSc1nnnn1-c1cccc2ccccc12)Nc1cccc(Cl)c1F` [Entry 232], the pIC50 is less than 7.00. For `O=C(CSc1nnnn1-c1cccc2ccccc12)Cc1ccccc1[N+](=O)[O-]` [Entry 345], the negative-log IC50 (pIC50) is less than 7.00. The same measure for `O=[N+]([O-])c1ccccc1NCCCSc1nnnn1-c1cccc2ccccc12` [Entry 329]: less than 7.00. In the case of `O=C(CCC1=C(c2cccc3ccccc23)CCC1)Nc1ccccc1Cl` [Entry 405], the pIC50 was less than 7.00.

For `O=[N+]([O-])c1ccccc1C(O)CSc1nnnn1-c1cccc2ccccc12` (centres unmarked) [Entry 309], the pIC50 was less than 7.00. The same measure for `O=C(CSc1nnnn1-c1cccc2ccccc12)Nc1ccc(O)cc1` [Entry 225]: less than 7.00.

With `O=[N+]([O-])c1ccccc1CNCCSc1nnnn1-c1cccc2ccccc12` [Entry 328], the pIC50 was less than 7.00.

`O=[N+]([O-])c1ccccc1/C=C/CSc1nnnn1-c1cccc2ccccc12` [Entry 312]: the pIC50 was less than 7.00. For `CCOc1ccccc1NC(=O)CSc1nnnn1-c1cccc2ccccc12` [Entry 213], the pIC50 was less than 7.00.

As for `Clc1ccccc1CCCSc1nnnn1-c1cccc2ccccc12` [Entry 311], the pIC50 is less than 7.00. For the compound `COC(=O)c1cccc(-n2nnnc2SCC(=O)Nc2ccccc2[N+](=O)[O-])c1` [Entry 120], the pIC50 was less than 7.00. `O=C(CCCc1nnnn1-c1cccc2ccccc12)Nc1ccccc1Cl` [Entry 305]: the pIC50 was less than 7.00. `O=C(CSc1nnnn1-c1cccc2ccccc12)Nc1ccc([N+](=O)[O-])cc1` [Entry 227]: the pIC50 was less than 7.00. In the case of `CC(C)c1ccccc1NC(=O)CSc1nnnn1-c1cccc2ccccc12` [Entry 204], the pIC50 is less than 7.00. Regarding `O=C(CSc1nnnn1-c1cccc2ccccc12)Nc1ccccn1` [Entry 243], the pIC50 is less than 7.00. Consider `O=C(CSc1nnnn1-c1cccc2ccccc12)Nc1ccccc1Cc1ccccc1` [Entry 205], for which the pIC50 is less than 7.00. Regarding `O=C(C=Cc1nnnn1-c1cccc2ccccc12)Nc1ccccc1[N+](=O)[O-]` [Entry 307], the pIC50 is less than 7.00. Regarding `c1ccc2c(-n3nnnc3SCc3nc4ccccc4[nH]3)cccc2c1` [Entry 339], the pIC50 is less than 7.00. For the compound `Clc1ccccc1OCCCSc1nnnn1-c1cccc2ccccc12` [Entry 324], the negative-log IC50 (pIC50) was less than 7.00.

`Cc1cc(C)c(-n2nnnc2SCC(=O)c2ccc3c(c2)OCO3)c(C)c1` [Entry 423]: the pIC50 was less than 7.00. The same measure for `O=C(OCCSc1nnnn1-c1cccc2ccccc12)c1ccccc1[N+](=O)[O-]` [Entry 322]: less than 7.00. On to `O=[N+]([O-])c1ccccc1CCSc1nnnn1-c1cccc2ccccc12` [Entry 310], for which the pIC50 is less than 7.00. As for `CCc1ccccc1NC(=O)CSc1nnnn1-c1cccc2ccccc12` [Entry 203], the pIC50 is less than 7.00. With `O=C(CSc1nnnn1-c1cccc2ccccc12)Nc1cccc([N+](=O)[O-])c1` [Entry 223] the figure was less than 7.00.

In the case of `O=C(CSc1nnnn1Cc1ccc2ccccc2c1)Nc1ccccc1[N+](=O)[O-]` [Entry 107], the pIC50 is less than 7.00. For `Cc1ccccc1-c1ccc(-n2nnnc2SCC(=O)Nc2ccccc2[N+](=O)[O-])c(C)c1` [Entry 132], the pIC50 was less than 7.00. In the case of `O=C(CSc1nnnn1-c1cccc2ccccc12)Nc1ccccc1-n1cccc1` [Entry 222], the pIC50 was less than 7.00.

Consider `COc1ccccc1NC(=O)CSc1nnnn1-c1cccc2ccccc12` [Entry 212], for which the pIC50 is less than 7.00.

Take `O=C(CSc1nnnn1-c1cccc2ccccc12)Nc1cccnc1` [Entry 244]: the pIC50 was less than 7.00. On to `O=C(OCCSc1nnnn1-c1cccc2ccccc12)c1ccccc1Cl` [Entry 323], for which the pIC50 is less than 7.00.

As for `O=C(CSc1nnnn1-c1cccc2ccccc12)Nc1ccccc1F` [Entry 207], the pIC50 is less than 7.00. With `O=C(CSc1nnnn1-c1cccc2ncccc12)Nc1ccccc1[N+](=O)[O-]` [Entry 106] the figure was less than 7.00.

With `O=C(CSc1nnnn1-c1cccc2ccccc12)Nc1ccccc1C(F)(F)F` [Entry 214], the pIC50 was less than 7.00. With `COc1ccccc1NC(=O)CSc1nccn1-c1cccc2ccccc12` [Entry 415], the pIC50 is less than 7.00. For the compound `O=C(CSc1nnnn1-c1cccc2ccccc12)Nc1cccc2c1CCCC2` [Entry 229], the pIC50 was less than 7.00.

Consider `CN(CCSc1nnnn1-c1cccc2ccccc12)c1ccccc1[N+](=O)[O-]` [Entry 327], for which the pIC50 is less than 7.00.

As to `Cc1cccc(C)c1-n1nnnc1SCC(=O)Nc1ccccc1[N+](=O)[O-]` [Entry 138], the pIC50 was less than 7.00.

`O=[N+]([O-])c1cccc2[nH]c(CSc3nnnn3-c3cccc4ccccc34)nc12` [Entry 340]: the pIC50 is less than 7.00. In the case of `CN(CCSc1nnnn1-c1cccc2ccccc12)C(=O)c1ccccc1Cl` [Entry 332], the pIC50 is less than 7.00.

On to `O=C(CCc1ccccc1-c1cccc2ccccc12)Nc1ccccc1Cl` [Entry 410], for which the pIC50 is less than 7.00. With `O=C(CSCc1nnnn1-c1cccc2ccccc12)Nc1ccccc1[N+](=O)[O-]` [Entry 335], the pIC50 was less than 7.00. With `O=C(CSc1nnnn1-c1cccc2ccccc12)Nc1ccc(-c2ccccc2)cc1` [Entry 226] the figure was less than 7.00; with `CSc1ccccc1NC(=O)CSc1nnnn1-c1cccc2ccccc12` [Entry 218], less than 7.00. With `COc1ccc(NC(=O)CSc2nnnn2-c2cccc3ccccc23)cc1` [Entry 224] the figure was less than 7.00. The same measure for `CC(=O)c1ccccc1NC(=O)CSc1nnnn1-c1cccc2ccccc12` [Entry 215]: less than 7.00. In the case of `O=C(C[S+]([O-])c1ccccc1-c1cccc2ccccc12)Nc1ccccc1Cl` (centres unmarked) [Entry 407], the pIC50 is less than 7.00. `O=C(CSc1nnnn1-c1cccc2ccccc12)NCc1ccccc1[N+](=O)[O-]` [Entry 344]: the pIC50 was less than 7.00.

On to `NC(=O)c1ccccc1NC(=O)CSc1nnnn1-c1cccc2ccccc12` [Entry 217], for which the pIC50 was less than 7.00.

`O=C1C(Sc2nnnn2-c2cccc3ccccc23)CCN1c1ccccc1Cl` (centres unmarked) [Entry 346]: the pIC50 is less than 7.00. For `Cc1ccc(NC(=O)CSc2nnnn2-c2cccc3ccccc23)c(C)c1` [Entry 233], the pIC50 was less than 7.00. Consider `O=[N+]([O-])c1ccccc1OCCSc1nnnn1-c1cccc2ccccc12` [Entry 320], for which the pIC50 was less than 7.00. As to `Cc1ccccc1NC(=O)CSc1nccn1-c1cccc2ccccc12` [Entry 414], the pIC50 is less than 7.00. `Clc1ccccc1OCCSc1nnnn1-c1cccc2ccccc12` [Entry 321]: the pIC50 is less than 7.00. As for `O=C(Nc1ccccc1[N+](=O)[O-])C1CC1c1nnnn1-c1cccc2ccccc12` (centres unmarked) [Entry 343], the pIC50 was less than 7.00. Turning to `O=C(CNCc1nnnn1-c1cccc2ccccc12)Nc1ccccc1[N+](=O)[O-]` [Entry 337], the pIC50 is less than 7.00. Consider `O=C(NCCSc1nnnn1-c1cccc2ccccc12)Nc1ccccc1Cl` [Entry 334], for which the pIC50 was less than 7.00.

Take `CN(C(=O)CSc1nnnn1-c1cccc2ccccc12)c1ccccc1Cl` [Entry 342]: the pIC50 is less than 7.00. As to `CN(CC(=O)Nc1ccccc1[N+](=O)[O-])Cc1nnnn1-c1cccc2ccccc12` [Entry 338], the pIC50 is less than 7.00.

`Clc1ccccc1/C=C/CSc1nnnn1-c1cccc2ccccc12` [Entry 313]: the pIC50 was less than 7.00.

`O=C(NCCSc1nnnn1-c1cccc2ccccc12)c1ccccc1Cl` [Entry 331]: the pIC50 is less than 7.00. For `COC(=O)c1ccccc1NC(=O)CSc1nnnn1-c1cccc2ccccc12` [Entry 216], the pIC50 was less than 7.00. Consider `O=C(CSc1nnnn1-c1cccc2ccccc12)Nc1c(Cl)cccc1Cl` [Entry 241], for which the pIC50 is less than 7.00. The same measure for `O=C(CSc1ccccc1Br)Nc1ccccc1Cl` [Entry 426]: less than 7.00; for `O=C(CSc1nnnn1-c1cccc2ccccc12)Nc1ccccc1N1CCOCC1` [Entry 221]: less than 7.00.

The values above are taken from patent US7642277B2, “Non-nucleoside reverse transcriptase inhibitors” (Boehringer Ingelheim International GmbH, priority 2002, dated 2010).
